In patent US12655116B2, “Substituted isophthalic acid diamides” (Bayer Aktiengesellschaft, priority 2020, dated 2026):

How the values were obtained:
ALOMY [1] = experiment: Pre-emergence herbicidal action against ALOMY; assay type: in vivo, Alopecurus myosuroides; settings: 80 g/ha, pre-emergence, scored visually after 3 weeks vs untreated controls (100% = plants have died, 0% = like control plants)
In short: (§1)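 Pre-emergence soil-surface spray of formulated compound (WP or EC; 600 to 800 l/ha; 0.2% wetting agent) over seeds sown in sandy loam. After 3 weeks under greenhouse conditions, damage is estimated visually in percent against untreated plants.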

VIOTR [2] = experiment: Pre-emergence herbicidal action against VIOTR; assay type: in vivo, Viola tricolor
In short: as §1

DIGSA [3] = experiment: Pre-emergence herbicidal action against DIGSA; assay type: in vivo, Digitaria sanguinalis
In short: as §1

ECHCG [4] = experiment: Post-emergence herbicidal action against ECHCG; assay type: in vivo, Echinochloa crus-galli
In short: (§2)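 Greenhouse plants in sandy loam were sprayed at the one-leaf stage, 2 to 3 weeks after sowing, with WP or EC formulations as aqueous suspension or emulsion (600 to 800 l/ha water, 0.2% wetting agent). Visual damage was scored about 3 weeks later versus untreated controls, 0% = like control, 100% = dead.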

ECHCG [5] = experiment: Pre-emergence herbicidal action against ECHCG; assay type: in vivo, Echinochloa crus-galli; settings: 80 g/ha
In short: as §1

SETVI = experiment: Pre-emergence herbicidal action against SETVI; assay type: in vivo, Setaria viridis
In short: as §1

VERPE [6] = experiment: Post-emergence herbicidal action against VERPE; assay type: in vivo, Veronica persica; settings: 20 g/ha
In short: as §2

AMARE [7] = experiment: Pre-emergence herbicidal action against AMARE; assay type: in vivo, Amaranthus retroflexus
In short: as §1

PHBPU [8] = experiment: Pre-emergence herbicidal action against PHBPU; assay type: in vivo, Pharbitis purpurea; settings: dosage 80 g/ha
Source text: Seeds of monocotyledonous and dicotyledonous weed plants and crop plants are laid out in sandy loam soil in wood-fiber pots and covered with soil. The compounds of the invention, formulated in the form of wettable powders (WP) or as emulsion concentrates (EC), are then applied to the surface of the covering soil in the form of an aqueous suspension or emulsion at a water application rate equivalent to 600 to 800 l/ha, with addition of 0.2% wetting agent. After the treatment, the pots are placed in a greenhouse and kept under good growth conditions for the trial plants. The damage to the test plants is scored visually after a test period of 3 weeks by comparison with untreated controls (herbicidal activity in percent (%): 100% activity=the plants have died, 0% activity=like control plants). […] The tables below illustrate, in an illustrative manner, the post-emergence herbicidal action of the compounds of the invention, the herbicidal activity being stated in percent.

VERPE [9] = experiment: Pre-emergence herbicidal action against VERPE; assay type: in vivo, Veronica persica
In short: as §1

AVEFA = experiment: Pre-emergence herbicidal action against AVEFA; assay type: in vivo, Avena fatua; settings: 80 g/ha, pre-emergence
In short: as §1

DIGSA [10] = experiment: Post-emergence herbicidal action against DIGSA; assay type: in vivo, Digitaria sanguinalis
In short: as §2

MATIN [11] = experiment: Pre-emergence herbicidal action against MATIN; assay type: in vivo, Matricaria inodora
In short: as §1

PHBPU [12] = experiment: Post-emergence herbicidal action against PHBPU; assay type: in vivo, Pharbitis purpurea
In short: as §2

ABUTH [13] = experiment: Pre-emergence herbicidal action against ABUTH; assay type: in vivo, Abutilon theophrasti
In short: as §1

VIOTR [14] = experiment: Post-emergence herbicidal action against VIOTR; assay type: in vivo, Viola tricolor; settings: 20 g/ha
In short: as §2

AMARE [15] = experiment: Post-emergence herbicidal action against AMARE; assay type: in vivo, Amaranthus retroflexus; settings: 20 g/ha, visual assessment about 3 weeks after treatment, 100% = plants have died, 0% = like control plants
In short: as §2

MATIN [16] = experiment: Post-emergence herbicidal action against MATIN; assay type: in vivo, Matricaria inodora
In short: as §2

ALOMY [17] = experiment: Post-emergence herbicidal action against ALOMY; assay type: in vivo, Alopecurus myosuroides; settings: dosage 20 g/ha, visual assessment about 3 weeks after treatment vs untreated controls
In short: as §2

ABUTH [18] = experiment: Post-emergence herbicidal action against ABUTH; assay type: in vivo, Abutilon theophrasti; settings: Abutilon theophrasti, 504 h, visual assessment about 3 weeks after treatment vs untreated controls
In short: as §2

[19] = 20 g/ha, scored visually after 3 weeks vs untreated controls, 100% = plants have died, 0% = like control plants
[20] = 80 g/ha, scored visually after 3 weeks vs untreated controls (100% = plants have died, 0% = like control plants)
[21] = Tripleurospermum inodorum, 504 h, dosage 20 g/ha

CCn1nnnc1NC(=O)c1ccc(C(F)(F)F)c(C(=O)NCC2CCCO2)c1C (stereo not drawn) [Example 2-37]
80%: Post-emergence action against ECHCG in % (ECHCG [4]; dosage 20 g/ha) | Pre-emergence action against ECHCG in % (ECHCG [5]) | Post-emergence action against VERPE in % (VERPE [6]) | Pre-emergence action against PHBPU in % (PHBPU [8]) | Pre-emergence action against VERPE in % (VERPE [9]; dosage 20 g/ha) | Pre-emergence action against VERPE in % (VERPE [9]; dosage 80 g/ha)
90%: Pre-emergence action against ALOMY (herbicidal activity) (ALOMY [1]) | Pre-emergence action against AMARE in % (AMARE [7]; [19])
100%: Pre-emergence action against VIOTR in % (VIOTR [2]; dosage 80 g/ha) | Pre-emergence action against DIGSA in % (DIGSA [3]; dosage 80 g/ha) | Pre-emergence action against SETVI in % (SETVI; dosage 80 g/ha) | Pre-emergence action against AMARE in % (AMARE [7]; [20])

CCn1nnnc1NC(=O)c1ccc(C(F)F)c(C(=O)NCC2CC2)c1Br [Example 2-228]
80%: Pre-emergence action against AVEFA in % (AVEFA) | Post-emergence action against DIGSA in % (DIGSA [10]; 5 g/ha) | Post-emergence action against DIGSA (DIGSA [10]; 20 g/ha) | Pre-emergence action against ALOMY (herbicidal activity) (ALOMY [1]) | Post-emergence action against PHBPU in % (PHBPU [12]; dosage 20 g/ha) | Post-emergence action against ECHCG in % (ECHCG [4]; dosage 5 g/ha) | Post-emergence action against VIOTR in % (VIOTR [14]) | Post-emergence action against MATIN in % (MATIN [16]; dosage 20 g/ha) | Post-emergence action against ALOMY in % (ALOMY [17])
100%: Pre-emergence action against MATIN in % (MATIN [11]; dosage 80 g/ha) | Pre-emergence action against VIOTR in % (VIOTR [2]; dosage 20 g/ha) | Pre-emergence action against VIOTR in % (VIOTR [2]; dosage 80 g/ha) | Pre-emergence action against DIGSA in % (DIGSA [3]; dosage 20 g/ha) | Pre-emergence action against DIGSA in % (DIGSA [3]; dosage 80 g/ha) | Pre-emergence action against ABUTH (herbicidal activity) (ABUTH [13]; [20]) | Pre-emergence action against ABUTH (herbicidal activity in percent) (ABUTH [13]; dosage 20 g/ha, scored visually after 3 weeks vs untreated controls, 100% = plants have died, 0% = like control plants) | Pre-emergence action against ECHCG in % (ECHCG [5]) | Pre-emergence action against AMARE in % (AMARE [7]; [19]) | Pre-emergence action against AMARE in % (AMARE [7]; [20]) | Pre-emergence action against PHBPU in % (PHBPU [8])
90%: Pre-emergence action against MATIN in % (MATIN [11]; dosage 20 g/ha) | Post-emergence action against ECHCG in % (ECHCG [4]; dosage 20 g/ha) | Pre-emergence action against SETVI in % (SETVI; dosage 80 g/ha) | Post-emergence action at 20 g/ha against AMARE in % (AMARE [15]) | Pre-emergence action against VERPE in % (VERPE [9]; dosage 80 g/ha)

CCNC(=O)c1c(C(F)(F)F)ccc(C(=O)Nc2nnnn2C)c1C1CC1 [Example 1-287]
80%: pest or weed control at 20 g/ha (VIOTR [14]; Viola tricolor, 504 h) | pest or weed control at 20 g/ha (VERPE [6]; Veronica persica, 504 h) | pest or weed control at 5 g/ha (MATIN [16]; Tripleurospermum inodorum, 504 h, dosage 5 g/ha)
90%: pest or weed control at 5 g/ha (PHBPU [12]; Ipomoea purpurea, 504 h, dosage 5 g/ha) | pest or weed control at 5 g/ha (ABUTH [18]; dosage 5 g/ha) | pest or weed control at 80 g/ha (ECHCG [5]; Echinochloa crus-galli, 504 h) | pest or weed control at 20 g/ha (SETVI; Setaria viridis, 504 h, dosage 20 g/ha) | pest or weed control at 80 g/ha (VERPE [9]; Veronica persica, 504 h, dosage 80 g/ha) | pest or weed control at 20 g/ha (MATIN [16]; [21])
100%: pest or weed control at 5 g/ha (DIGSA [10]; Digitaria sanguinalis, 504 h, 5 g/ha) | pest or weed control at 20 g/ha (DIGSA [10]; Digitaria sanguinalis, 504 h, 20 g/ha) | pest or weed control at 20 g/ha (MATIN [11]; [21]) | pest or weed control at 80 g/ha (MATIN [11]; Tripleurospermum inodorum, 504 h, dosage 80 g/ha) | pest or weed control at 20 g/ha (VIOTR [2]; Viola tricolor, 504 h, dosage 20 g/ha) | pest or weed control at 80 g/ha (VIOTR [2]; Viola tricolor, 504 h, dosage 80 g/ha) | pest or weed control at 20 g/ha (PHBPU [12]; Ipomoea purpurea, 504 h, dosage 20 g/ha) | pest or weed control at 20 g/ha (DIGSA [3]; Digitaria sanguinalis, 504 h, dosage 20 g/ha) | pest or weed control at 80 g/ha (DIGSA [3]; Digitaria sanguinalis, 504 h, dosage 80 g/ha) | pest or weed control at 20 g/ha (ECHCG [4]; Echinochloa crus-galli, 504 h, dosage 20 g/ha) | pest or weed control at 80 g/ha (ABUTH [13]; Abutilon theophrasti, 504 h, 80 g/ha, scored visually after 3 weeks vs untreated controls (100% = plants have died, 0% = like control plants)) | pest or weed control at 20 g/ha (ABUTH [13]; Abutilon theophrasti, 504 h, dosage 20 g/ha, scored visually after 3 weeks vs untreated controls, 100% = plants have died, 0% = like control plants, read-out: Pre-emergence action against ABUTH (herbicidal activity in percent)) | pest or weed control at 20 g/ha (ABUTH [18]; dosage 20 g/ha) | pest or weed control at 80 g/ha (SETVI; Setaria viridis, 504 h, dosage 80 g/ha) | pest or weed control at 20 g/ha (AMARE [7]; Amaranthus retroflexus, 504 h, 20 g/ha, scored visually after 3 weeks vs untreated controls, 100% = plants have died, 0% = like control plants) | pest or weed control at 80 g/ha (AMARE [7]; Amaranthus retroflexus, 504 h, 80 g/ha, scored visually after 3 weeks vs untreated controls, 100% = plants have died, 0% = like control plants) | pest or weed control at 80 g/ha (PHBPU [8]; Ipomoea purpurea, 504 h)
